Assay results: PubChem BioAssay AID1259407 (Chemical Carcinogenesis Research Information System (CCRIS), 2018)
Active and inactive are the calls of the source. The rule behind the calls is not given here.

Test system: CCRIS mutagenicity, Ames/micronucleus/aberration tests
Assay: CCRIS mutagenicity studies
[1] = Test System: AMES SALMONELLA TYPHIMURIUM, Strain/Indicator: TA98, Metabolic Activation: HAMSTER, LIVER, S-9, AROCLOR 1254 (10%), Method: PREINCUBATION
[2] = Test System: AMES SALMONELLA TYPHIMURIUM, Strain/Indicator: TA98, Metabolic Activation: NONE, Method: PREINCUBATION
[3] = Test System: AMES SALMONELLA TYPHIMURIUM, Strain/Indicator: TA98, Metabolic Activation: RAT, LIVER, S-9, AROCLOR 1254 (10%), Method: PREINCUBATION
[4] = Test System: AMES SALMONELLA TYPHIMURIUM, Strain/Indicator: TA98, Metabolic Activation: RAT, LIVER, S-9, PCB, Method: PREINCUBATION
[5] = Test System: AMES SALMONELLA TYPHIMURIUM, Strain/Indicator: TA100, Metabolic Activation: HAMSTER, LIVER, S-9, AROCLOR 1254 (10%), Method: PREINCUBATION
[6] = Test System: AMES SALMONELLA TYPHIMURIUM, Strain/Indicator: TA100, Metabolic Activation: NONE, Method: PREINCUBATION
[7] = Test System: AMES SALMONELLA TYPHIMURIUM, Strain/Indicator: TA100, Metabolic Activation: RAT, LIVER, S-9, AROCLOR 1254 (10%), Method: PREINCUBATION
[8] = Test System: AMES SALMONELLA TYPHIMURIUM, Strain/Indicator: TA100, Metabolic Activation: RAT, LIVER, S-9, PCB, Method: PREINCUBATION
[9] = Test System: AMES SALMONELLA TYPHIMURIUM, Strain/Indicator: TA1535, Metabolic Activation: HAMSTER, LIVER, S-9, AROCLOR 1254 (10%), Method: PREINCUBATION
[10] = Test System: AMES SALMONELLA TYPHIMURIUM, Strain/Indicator: TA1535, Metabolic Activation: NONE, Method: PREINCUBATION
[11] = Test System: AMES SALMONELLA TYPHIMURIUM, Strain/Indicator: TA1535, Metabolic Activation: RAT, LIVER, S-9, AROCLOR 1254 (10%), Method: PREINCUBATION
[12] = Test System: AMES SALMONELLA TYPHIMURIUM, Strain/Indicator: TA1537, Metabolic Activation: HAMSTER, LIVER, S-9, AROCLOR 1254 (10%), Method: PREINCUBATION
[13] = Test System: AMES SALMONELLA TYPHIMURIUM, Strain/Indicator: TA1537, Metabolic Activation: NONE, Method: PREINCUBATION
[14] = Test System: AMES SALMONELLA TYPHIMURIUM, Strain/Indicator: TA1537, Metabolic Activation: RAT, LIVER, S-9, AROCLOR 1254 (10%), Method: PREINCUBATION
[15] = Test System: AMES SALMONELLA TYPHIMURIUM, Strain/Indicator: TA1537, Metabolic Activation: NONE, Method: STANDARD PLATE
[16] = Test System: AMES SALMONELLA TYPHIMURIUM, Strain/Indicator: TA100, Metabolic Activation: NONE, Method: STANDARD PLATE
[17] = Test System: AMES SALMONELLA TYPHIMURIUM, Strain/Indicator: TA98, Metabolic Activation: NONE
[18] = Test System: AMES SALMONELLA TYPHIMURIUM, Strain/Indicator: TA100, Metabolic Activation: NONE
[19] = Test System: AMES SALMONELLA TYPHIMURIUM, Strain/Indicator: TA1535, Metabolic Activation: NONE

Question: What does the source list for `NCCCNCCCN`?
Answer: mutagenic call [1]: inactive; negative; mutagenic call [2]: inactive; negative; mutagenic call [3]: inactive; negative; mutagenic call [4]: inactive; negative; mutagenic call [5]: inactive; negative; mutagenic call [6]: inactive; negative; mutagenic call [7]: inactive; negative; mutagenic call [8]: inactive; negative; mutagenic call [9]: inactive; negative; mutagenic call [10]: inactive; negative; mutagenic call [11]: inactive; negative; mutagenic call [12]: inactive; negative; mutagenic call [13]: inactive; negative; mutagenic call [14]: inactive; negative

Question: With `ClCc1c2ccccc2c(CCl)c2ccccc12` as the compound, how does the mutagenic call [15] read?
Answer: active; positive

Question: With `NCCNCCNCCN` as the compound, how does the mutagenic call [1] read?
Answer: active; positive

Question: And the mutagenic call [2]?
Answer: active; positive

Question: What about the mutagenic call (Test System: AMES SALMONELLA TYPHIMURIUM, Strain/Indicator: TA98, Metabolic Activation: NONE, Method: STANDARD PLATE) of the same compound?
Answer: active; positive

Question: What about the mutagenic call [3] of the same compound?
Answer: active; positive

Question: And the mutagenic call [4]?
Answer: active; positive

Question: And the mutagenic call [5]?
Answer: active; positive

Question: And the mutagenic call [6]?
Answer: active; positive

Question: And the mutagenic call [16]?
Answer: active; positive

Question: What about the mutagenic call [7] of the same compound?
Answer: active; positive

Question: What about the mutagenic call [8] of the same compound?
Answer: active; positive

Question: And the mutagenic call [9]?
Answer: active; positive

Question: What about the mutagenic call [10] of the same compound?
Answer: active; positive

Question: And the mutagenic call (Test System: AMES SALMONELLA TYPHIMURIUM, Strain/Indicator: TA1535, Metabolic Activation: NONE, Method: STANDARD PLATE)?
Answer: inactive; negative

Question: What about the mutagenic call [11] of the same compound?
Answer: active; positive

Question: What about the mutagenic call (Test System: AMES SALMONELLA TYPHIMURIUM, Strain/Indicator: TA1535, Metabolic Activation: RAT, LIVER, S-9, AROCLOR 1254, Method: STANDARD PLATE) of the same compound?
Answer: active; positive

Question: What about the mutagenic call [12] of the same compound?
Answer: active; positive

Question: And the mutagenic call [13]?
Answer: active; positive

Question: What about the mutagenic call [15] of the same compound?
Answer: active; positive

Question: What about the mutagenic call [14] of the same compound?
Answer: active; positive

Question: What about the mutagenic call (Test System: AMES SALMONELLA TYPHIMURIUM, Strain/Indicator: TA1537, Metabolic Activation: RAT, LIVER, S-9, AROCLOR 1254, Method: STANDARD PLATE) of the same compound?
Answer: inactive; negative

Question: And the mutagenic call (Test System: AMES SALMONELLA TYPHIMURIUM, Strain/Indicator: TA1538, Metabolic Activation: NONE, Method: STANDARD PLATE)?
Answer: active; positive

Question: And the mutagenic call (Test System: AMES SALMONELLA TYPHIMURIUM, Strain/Indicator: TA1538, Metabolic Activation: RAT, LIVER, S-9, AROCLOR 1254, Method: STANDARD PLATE)?
Answer: inactive; negative

Question: What about the mutagenic call (Test System: CHINESE HAMSTER OVARY, Strain/Indicator: CHO (HGPRT)/6-THIOGUANINE, Metabolic Activation: NONE) of the same compound?
Answer: inactive; negative

Question: And the mutagenic call (Test System: CHINESE HAMSTER OVARY, Strain/Indicator: CHO (HGPRT)/6-THIOGUANINE, Metabolic Activation: RAT, LIVER, S-9, AROCLOR 1254)?
Answer: inactive; negative

Question: And the mutagenic call (Test System: UDS RAT HEPATOCYTES, Strain/Indicator: THY INCORP, Metabolic Activation: NONE, Method: SCINTILLATION SPECTROMETRY)?
Answer: active; positive

Question: Which mutagenic call [16] does the source give for `CC(=O)ON(OCc1ccc(Oc2ccccc2)cc1)C(=O)c1ccccc1` here?
Answer: active; positive

Question: What about the mutagenic call (Test System: AMES SALMONELLA TYPHIMURIUM, Strain/Indicator: TA100, Metabolic Activation: RAT, S-9, AROCLOR, Method: STANDARD PLATE) of the same compound?
Answer: active; positive

Question: Which results are given for `O=[N+]([O-])c1ccc2c3c(ccc([N+](=O)[O-])c13)-c1ccccc1-2`?
Answer: mutagenic call (Test System: AMES SALMONELLA TYPHIMURIUM, Strain/Indicator: TA97, Metabolic Activation: NONE): active; positive; mutagenic call (Test System: AMES SALMONELLA TYPHIMURIUM, Strain/Indicator: TA98(1,8-DNP6), Metabolic Activation: NONE): active; positive; mutagenic call (Test System: AMES SALMONELLA TYPHIMURIUM, Strain/Indicator: TA98(NR), Metabolic Activation: NONE): active; positive; mutagenic call [17]: active; positive; mutagenic call [18]: active; positive; mutagenic call [19]: inactive; negative; mutagenic call (Test System: AMES SALMONELLA TYPHIMURIUM, Strain/Indicator: TA1537, Metabolic Activation: NONE): active; positive; mutagenic call (Test System: AMES SALMONELLA TYPHIMURIUM, Strain/Indicator: TA1538, Metabolic Activation: NONE): active; positive; mutagenic call (Test System: AMES SALMONELLA TYPHIMURIUM, Strain/Indicator: TA1978, Metabolic Activation: NONE): inactive; negative

Question: How did the mutagenic call [2] turn out when `O=[N+]([O-])c1ccc2c3c1ccc1cccc(c13)[C@@H](O)[C@@H]2O` was run?
Answer: active; positive

Question: And the mutagenic call (Test System: AMES SALMONELLA TYPHIMURIUM, Strain/Indicator: TA98, Metabolic Activation: RAT, LIVER, S-9, AROCLOR 1254, Method: PREINCUBATION)?
Answer: active; positive

Question: What about the mutagenic call [6] of the same compound?
Answer: active; positive

Question: And the mutagenic call (Test System: AMES SALMONELLA TYPHIMURIUM, Strain/Indicator: TA100, Metabolic Activation: RAT, LIVER, S-9, AROCLOR 1254, Method: PREINCUBATION)?
Answer: active; positive

Question: Which results are given for `CCC[CH2][Sn]([Cl])([CH2]CCC)[CH2]CCC`?
Answer: mutagenic call (Test System: AMES SALMONELLA TYPHIMURIUM, Strain/Indicator: TA98, Metabolic Activation: NONE, Method: SUSPENSION/PLATE): inactive; negative; mutagenic call (Test System: AMES SALMONELLA TYPHIMURIUM, Strain/Indicator: TA100, Metabolic Activation: NONE, Method: SUSPENSION/PLATE): active; positive

Question: With `CCOC(=O)N(C)C` as the compound, how does the mutagenic call [17] read?
Answer: inactive; negative

Question: And the mutagenic call [18]?
Answer: inactive; negative

Question: And the mutagenic call [19]?
Answer: active; positive

Question: And the mutagenic call (Test System: AMES SALMONELLA TYPHIMURIUM, Strain/Indicator: TA1535, Metabolic Activation: S-9, AROCLOR 1254)?
Answer: active; positive

Question: Which mutagenic call (Test System: AMES SALMONELLA TYPHIMURIUM, Strain/Indicator: TA98, Metabolic Activation: HAMSTER, LIVER, S-9, AROCLOR 1254 (30%), Method: PREINCUBATION) does the source give for `Cc1cccc2cccnc12` here?
Answer: active; positive

Question: What about the mutagenic call [2] of the same compound?
Answer: inactive; negative

Question: What about the mutagenic call (Test System: AMES SALMONELLA TYPHIMURIUM, Strain/Indicator: TA98, Metabolic Activation: RAT, LIVER, S-9, AROCLOR 1254 (30%), Method: PREINCUBATION) of the same compound?
Answer: inactive; negative

Question: And the mutagenic call (Test System: AMES SALMONELLA TYPHIMURIUM, Strain/Indicator: TA100, Metabolic Activation: HAMSTER, LIVER, S-9, AROCLOR 1254 (30%), Method: PREINCUBATION)?
Answer: active; positive

Question: What about the mutagenic call [6] of the same compound?
Answer: inactive; negative

Question: And the mutagenic call (Test System: AMES SALMONELLA TYPHIMURIUM, Strain/Indicator: TA100, Metabolic Activation: RAT, LIVER, S-9, AROCLOR 1254 (30%), Method: PREINCUBATION)?
Answer: inactive; negative

Question: What about the mutagenic call (Test System: AMES SALMONELLA TYPHIMURIUM, Strain/Indicator: TA100, Metabolic Activation: S-9, Method: PREINCUBATION) of the same compound?
Answer: inactive; negative

Question: And the mutagenic call (Test System: UDS RODENT HEPATOCYTES, Strain/Indicator: THY INCORP (NON-S-PHASE), Metabolic Activation: NONE, Method: AUTORADIOGRAPHY)?
Answer: active; positive
